In one assay the target is T1, TYK2 (Homo sapiens, UniProt P29597).
T1 construct: made in house; host or cells: T7 phage display or HEK-293 cells (alternatives)
The assay can be described thus: Competition binding assay to determine binding constants (Kd), TYK2.

The target of the next assay is T2, JAK2 (Homo sapiens, UniProt O60674).
T2 construct: made in house; host or cells: T7 phage display or HEK-293 cells (alternatives)
The assay can be described thus: Competition binding assay to determine binding constants (Kd), JAK2.

For assay [1], the system named is GM-CSFR/JAK2/STAT5 pathway. The assay can be described thus: CSTF-1 cell-based reporter assay. The note with it: Homo sapiens; csTF-1 cells, GM-CSF at 2 ng/mL, 4 hours, beta-lactamase reporter; read-out: Cell Assay: CS TF-1 reporter assay IC50. For orientation: A reporter such as luciferase makes a cellular process visible.
A further assay addresses T3, JAK3 (Homo sapiens, UniProt P52333).
T3 construct: made in house; host or cells: T7 phage display or HEK-293 cells (alternatives)
T3 sequence (P52333 1-1124): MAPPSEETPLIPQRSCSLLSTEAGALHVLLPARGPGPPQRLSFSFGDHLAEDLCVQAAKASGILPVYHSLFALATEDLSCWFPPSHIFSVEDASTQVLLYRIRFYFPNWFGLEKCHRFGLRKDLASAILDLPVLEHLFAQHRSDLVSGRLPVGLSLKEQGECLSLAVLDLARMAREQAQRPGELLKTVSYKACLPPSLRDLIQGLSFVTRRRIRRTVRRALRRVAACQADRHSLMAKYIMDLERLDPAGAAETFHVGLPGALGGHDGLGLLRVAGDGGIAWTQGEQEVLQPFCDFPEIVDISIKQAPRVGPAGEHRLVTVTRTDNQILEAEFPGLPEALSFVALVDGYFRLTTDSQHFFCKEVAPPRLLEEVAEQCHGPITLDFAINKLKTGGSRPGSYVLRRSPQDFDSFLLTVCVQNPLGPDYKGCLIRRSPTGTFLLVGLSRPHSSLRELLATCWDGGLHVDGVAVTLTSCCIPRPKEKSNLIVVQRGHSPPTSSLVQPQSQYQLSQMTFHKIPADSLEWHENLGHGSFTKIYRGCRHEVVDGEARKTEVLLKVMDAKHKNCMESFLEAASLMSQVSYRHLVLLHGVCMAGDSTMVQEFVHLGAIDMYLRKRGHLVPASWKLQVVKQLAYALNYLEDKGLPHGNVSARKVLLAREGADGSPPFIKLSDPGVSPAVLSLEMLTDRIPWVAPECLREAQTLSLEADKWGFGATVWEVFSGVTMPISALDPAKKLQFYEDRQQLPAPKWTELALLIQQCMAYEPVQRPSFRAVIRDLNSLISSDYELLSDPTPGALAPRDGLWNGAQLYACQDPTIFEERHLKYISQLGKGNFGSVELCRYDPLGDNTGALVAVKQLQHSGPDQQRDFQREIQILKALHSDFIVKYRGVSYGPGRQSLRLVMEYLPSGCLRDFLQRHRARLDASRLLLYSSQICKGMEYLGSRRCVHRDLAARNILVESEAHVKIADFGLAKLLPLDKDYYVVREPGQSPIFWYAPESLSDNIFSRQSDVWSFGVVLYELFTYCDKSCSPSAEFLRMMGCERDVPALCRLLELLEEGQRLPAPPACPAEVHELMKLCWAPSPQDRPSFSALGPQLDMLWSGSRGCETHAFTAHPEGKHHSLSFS
The assay can be described thus: Competition binding assay to determine binding constants (Kd), JAK3.

T2 sequence (O60674 whole entry): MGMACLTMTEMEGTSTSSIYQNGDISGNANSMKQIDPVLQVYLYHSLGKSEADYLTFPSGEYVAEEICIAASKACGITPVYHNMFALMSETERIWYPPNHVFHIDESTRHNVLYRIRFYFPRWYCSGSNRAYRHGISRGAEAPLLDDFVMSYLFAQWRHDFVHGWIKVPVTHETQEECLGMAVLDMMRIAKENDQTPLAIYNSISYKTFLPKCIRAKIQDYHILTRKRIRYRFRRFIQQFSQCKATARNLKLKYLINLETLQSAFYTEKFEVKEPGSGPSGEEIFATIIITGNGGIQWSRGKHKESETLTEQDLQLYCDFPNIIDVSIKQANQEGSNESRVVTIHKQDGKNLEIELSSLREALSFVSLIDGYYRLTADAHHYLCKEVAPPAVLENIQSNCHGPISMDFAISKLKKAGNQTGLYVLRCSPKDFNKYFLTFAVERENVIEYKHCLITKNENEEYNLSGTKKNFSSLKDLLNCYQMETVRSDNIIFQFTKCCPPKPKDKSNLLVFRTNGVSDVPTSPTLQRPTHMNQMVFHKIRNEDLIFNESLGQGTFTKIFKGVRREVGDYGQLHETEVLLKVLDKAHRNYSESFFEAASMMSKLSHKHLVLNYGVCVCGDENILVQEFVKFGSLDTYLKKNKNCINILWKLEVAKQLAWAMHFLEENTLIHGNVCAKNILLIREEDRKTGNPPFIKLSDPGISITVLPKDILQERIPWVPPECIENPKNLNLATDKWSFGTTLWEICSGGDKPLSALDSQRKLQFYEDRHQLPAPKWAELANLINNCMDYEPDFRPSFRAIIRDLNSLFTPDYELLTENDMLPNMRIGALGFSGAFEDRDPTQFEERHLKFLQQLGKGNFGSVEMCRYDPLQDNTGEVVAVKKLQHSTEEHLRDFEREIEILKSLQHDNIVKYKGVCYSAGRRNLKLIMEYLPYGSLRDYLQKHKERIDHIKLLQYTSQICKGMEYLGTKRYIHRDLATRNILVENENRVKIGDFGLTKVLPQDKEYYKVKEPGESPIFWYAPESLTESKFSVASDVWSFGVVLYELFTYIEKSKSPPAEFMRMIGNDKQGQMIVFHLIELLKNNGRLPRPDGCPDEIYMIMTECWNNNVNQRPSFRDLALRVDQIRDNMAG
T1 sequence (P29597 whole entry): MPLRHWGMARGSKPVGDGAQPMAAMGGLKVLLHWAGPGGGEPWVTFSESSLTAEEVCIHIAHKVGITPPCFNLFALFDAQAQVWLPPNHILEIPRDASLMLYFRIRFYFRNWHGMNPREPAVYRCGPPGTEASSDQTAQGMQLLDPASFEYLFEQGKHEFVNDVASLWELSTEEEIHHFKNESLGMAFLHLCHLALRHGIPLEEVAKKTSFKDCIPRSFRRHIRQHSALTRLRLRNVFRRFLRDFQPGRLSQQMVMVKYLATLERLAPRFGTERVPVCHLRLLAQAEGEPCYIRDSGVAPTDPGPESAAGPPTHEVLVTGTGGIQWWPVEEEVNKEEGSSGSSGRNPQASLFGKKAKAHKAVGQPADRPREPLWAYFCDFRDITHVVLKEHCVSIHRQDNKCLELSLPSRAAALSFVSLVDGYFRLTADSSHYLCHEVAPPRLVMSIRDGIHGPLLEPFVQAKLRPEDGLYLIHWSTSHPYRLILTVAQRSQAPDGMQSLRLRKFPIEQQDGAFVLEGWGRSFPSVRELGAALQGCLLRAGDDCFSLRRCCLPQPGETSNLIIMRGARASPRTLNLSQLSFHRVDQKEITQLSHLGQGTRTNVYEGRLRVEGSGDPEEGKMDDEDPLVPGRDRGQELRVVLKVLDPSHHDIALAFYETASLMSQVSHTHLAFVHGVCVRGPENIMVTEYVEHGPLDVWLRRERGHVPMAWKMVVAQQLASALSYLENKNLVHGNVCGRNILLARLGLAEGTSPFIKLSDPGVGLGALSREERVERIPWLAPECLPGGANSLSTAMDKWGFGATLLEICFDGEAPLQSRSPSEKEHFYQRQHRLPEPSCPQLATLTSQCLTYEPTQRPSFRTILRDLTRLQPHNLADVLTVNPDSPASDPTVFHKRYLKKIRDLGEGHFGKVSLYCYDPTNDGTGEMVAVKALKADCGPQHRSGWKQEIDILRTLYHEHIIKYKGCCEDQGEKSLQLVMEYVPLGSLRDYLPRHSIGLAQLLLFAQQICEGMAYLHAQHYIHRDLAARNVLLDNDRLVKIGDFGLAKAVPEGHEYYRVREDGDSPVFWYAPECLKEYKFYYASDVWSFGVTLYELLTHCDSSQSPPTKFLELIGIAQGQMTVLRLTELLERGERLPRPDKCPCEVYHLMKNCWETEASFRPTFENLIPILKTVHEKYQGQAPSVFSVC

Usually Kd stands for the constant that tells how readily two partners part at equilibrium. Higher therefore signals weaker binding. The term IC50 denotes the concentration that inhibits the measured activity by half. `Cc1cc(Nc2nc(S(=O)(=O)c3ccc(F)cc3)nc3c2cnn3C2CCOCC2)n[nH]1` [Example 28, 6-(4-fluorophenylsulfonyl)-N-(5-methyl-1H-pyrazol-3-yl)-1-(tetrahydro-2H-pyran-4-yl)-1H-pyrazolo[3,4-d]pyrimidin-4-amine]: the Kd on TYK2 was at most 10 nM; on JAK2, at most 1 nM; on JAK3 it was 10 to 100 nM. Besides, the concentration for half-maximal inhibition (IC50) in assay [1] was 100 to 500 nM.
The matching figures for `COCCn1ccc2c(Nc3cc[nH]n3)nc(S(=O)(=O)c3ccc(F)cc3)nc21` [Example 12, 2-(4-fluorophenylsulfonyl)-7-(2-methoxyethyl)-N-(1H-pyrazol-3-yl)-7H-pyrrolo[2,3-d]pyrimidin-4-amine]: at most 10 nM, at most 1 nM, at most 10 nM and at most 100 nM.

Source of the values: US20130303533A1, “AZOLOPYRIDINE AND AZOLOPYRIMIDINE COMPOUNDS AND METHODS OF USE THEREOF” (AMBIT BIOSCIENCES CORPORATION, priority 2010, published 2013).
